From US9562035B2, “Benzamide derivative useful as FASN inhibitors for the treatment of cancer” (Janssen Pharmaceutica NV, priority 2013, dated 2017)

Experiments:
[1] = test system: A2780 ovarian cells; test: A2780 Ovarian Cell Proliferation Assay in Lipid Reduced Medium, with Palmitate (control); format: cell-based; conditions: Homo sapiens
Outline: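 Read-out was MTT absorbance at 544 nm after 96 h at 37 °C. Cells grown overnight in RPMI1640/10% FCS were moved to 10% lipid-reduced serum with compound plus palmitate (final 25 μM, 0.2% fatty-acid-free BSA, 0.2% DMSO). IC50 came from least-squares curve fitting, expressed as −log(IC50).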

[2] = target: T1, FASN Keto-reductase Domain (Homo sapiens, UniProt P49327); test: Fatty Acid Synthase Keto-Reductase Domain (FASN KR) Inhibition; format: biochemical; conditions: mean where tested more than once; read-out: FASN K-R Domain pIC50 (converted)
T1 construct: 10 μL hFASN enzyme (full length, 300 ng, purified in house) and 360 μM NADPH; made in house
T1 sequence (P49327 whole entry, the tested form may be a part): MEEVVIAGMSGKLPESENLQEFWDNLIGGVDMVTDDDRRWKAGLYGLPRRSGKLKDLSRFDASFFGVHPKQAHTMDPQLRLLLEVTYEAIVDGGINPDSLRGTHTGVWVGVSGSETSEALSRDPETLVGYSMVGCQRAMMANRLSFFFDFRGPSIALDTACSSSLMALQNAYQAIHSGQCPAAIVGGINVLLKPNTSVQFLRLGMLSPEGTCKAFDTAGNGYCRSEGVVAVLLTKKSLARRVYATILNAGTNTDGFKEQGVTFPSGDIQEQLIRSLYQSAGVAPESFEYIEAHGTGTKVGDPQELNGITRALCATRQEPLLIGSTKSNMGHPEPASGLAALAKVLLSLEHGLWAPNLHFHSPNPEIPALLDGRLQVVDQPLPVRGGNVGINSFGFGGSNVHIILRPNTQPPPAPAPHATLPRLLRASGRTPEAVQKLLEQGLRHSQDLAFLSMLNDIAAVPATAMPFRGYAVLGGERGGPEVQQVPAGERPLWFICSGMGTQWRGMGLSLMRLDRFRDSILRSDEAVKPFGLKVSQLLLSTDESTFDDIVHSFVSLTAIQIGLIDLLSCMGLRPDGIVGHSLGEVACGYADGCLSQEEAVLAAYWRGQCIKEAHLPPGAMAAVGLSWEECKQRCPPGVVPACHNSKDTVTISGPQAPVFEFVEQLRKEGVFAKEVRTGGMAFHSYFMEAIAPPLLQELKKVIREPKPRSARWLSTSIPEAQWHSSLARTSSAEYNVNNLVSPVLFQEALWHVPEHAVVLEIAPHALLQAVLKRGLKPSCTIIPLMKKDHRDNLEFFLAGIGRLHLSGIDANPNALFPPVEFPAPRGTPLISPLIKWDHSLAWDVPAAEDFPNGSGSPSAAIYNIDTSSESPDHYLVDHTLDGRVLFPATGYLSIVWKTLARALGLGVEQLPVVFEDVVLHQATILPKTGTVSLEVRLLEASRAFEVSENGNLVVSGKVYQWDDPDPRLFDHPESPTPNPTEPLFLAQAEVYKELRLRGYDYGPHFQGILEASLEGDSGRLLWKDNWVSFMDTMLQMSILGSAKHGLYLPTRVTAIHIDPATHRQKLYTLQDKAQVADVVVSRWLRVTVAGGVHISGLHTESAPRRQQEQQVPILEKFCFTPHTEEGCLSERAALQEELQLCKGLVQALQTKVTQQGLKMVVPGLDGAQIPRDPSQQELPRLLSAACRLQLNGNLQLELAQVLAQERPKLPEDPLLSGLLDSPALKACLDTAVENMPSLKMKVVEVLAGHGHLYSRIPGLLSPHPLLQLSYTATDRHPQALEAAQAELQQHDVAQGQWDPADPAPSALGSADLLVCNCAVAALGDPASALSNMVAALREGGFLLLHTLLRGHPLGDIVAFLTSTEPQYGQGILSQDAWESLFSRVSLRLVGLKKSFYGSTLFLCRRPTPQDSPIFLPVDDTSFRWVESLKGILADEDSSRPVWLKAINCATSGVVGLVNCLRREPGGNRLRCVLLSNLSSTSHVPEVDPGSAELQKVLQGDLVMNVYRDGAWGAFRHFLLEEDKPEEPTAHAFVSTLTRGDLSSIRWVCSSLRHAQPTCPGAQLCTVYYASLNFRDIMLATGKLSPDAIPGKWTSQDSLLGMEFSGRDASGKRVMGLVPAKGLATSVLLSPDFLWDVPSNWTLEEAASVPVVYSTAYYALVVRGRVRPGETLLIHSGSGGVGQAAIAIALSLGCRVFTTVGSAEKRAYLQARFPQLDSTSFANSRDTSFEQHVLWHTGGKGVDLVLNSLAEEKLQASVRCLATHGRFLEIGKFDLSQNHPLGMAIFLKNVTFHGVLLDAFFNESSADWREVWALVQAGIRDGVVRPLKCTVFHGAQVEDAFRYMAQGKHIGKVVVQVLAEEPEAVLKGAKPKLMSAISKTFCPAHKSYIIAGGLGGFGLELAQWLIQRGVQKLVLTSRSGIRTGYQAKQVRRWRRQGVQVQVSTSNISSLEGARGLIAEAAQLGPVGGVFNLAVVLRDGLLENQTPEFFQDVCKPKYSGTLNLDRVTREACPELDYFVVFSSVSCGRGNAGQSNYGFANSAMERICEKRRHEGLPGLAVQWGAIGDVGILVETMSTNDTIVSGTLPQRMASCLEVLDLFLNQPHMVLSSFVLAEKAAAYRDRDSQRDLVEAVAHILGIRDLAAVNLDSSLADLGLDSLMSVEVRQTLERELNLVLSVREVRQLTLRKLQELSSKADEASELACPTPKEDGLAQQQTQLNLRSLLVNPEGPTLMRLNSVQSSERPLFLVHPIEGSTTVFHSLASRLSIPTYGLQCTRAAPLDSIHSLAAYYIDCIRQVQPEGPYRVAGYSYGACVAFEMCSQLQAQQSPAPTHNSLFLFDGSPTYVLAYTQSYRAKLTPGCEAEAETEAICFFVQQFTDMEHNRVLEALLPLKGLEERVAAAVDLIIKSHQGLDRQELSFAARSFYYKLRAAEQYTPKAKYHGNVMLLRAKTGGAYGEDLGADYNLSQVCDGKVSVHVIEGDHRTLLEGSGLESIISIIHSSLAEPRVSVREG
Outline: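 Keto-reductase activity followed as NADPH consumption (A340 drop between 0 and 20 min, room temperature) using in-house full-length hFASN, 360 μM NADPH and ethyl acetoacetate substrate (180 mM stock), pH 7.5 phosphate buffer.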

[3] = test system: PC-3M-Luc-C6 prostate cells; test: In Vitro PC-3M-Luc-C6 Prostate Cell Proliferation Assay in Lipid Reduced Medium; format: cell-based; conditions: read-out: PC-3M-Luc-C6 Cells pIC50 (μM) (converted), lipid reduced serum, 96 h
Protocol: PC-3M-Luc-C6 prostate cells were obtained from Xenogen Corporation. Cells were maintained in MEM supplemented with 10% Fetal Calf Serum (FCS, Hyclone), 2 mM glutamine, 1 mM sodium pyruvate, 1% BME vitamins (available from for example, Sigma Aldrich), 0.1 mM non Essential Amino Acid and 50 μg/ml Gentamicin. The cells were passaged twice a week.
1000 PC-3M-Luc-C6 prostate cells (Xenogen) were seeded in a 384-well black with clear bottom plate (costar 3712BC) in 40 μl MEM, 10% LRS (Hyclo ne), 50 μg/ml Gentamicin, 2 mM Glutamine, 1 mM Sodium pyruvaat, 1% BME vitamins and 0.1 mM non Essential Amino Acid and incubated at 37° C., 5% CO2. The next day 10 μl test compound/DMSO diluted in medium was added (3E-5M, 1E-5M, 3E-6M, 1E-6M, 3E-7M, 1E-7M, 3E-8M, 1E-8M final concentration). Compounds were tested in duplicate. After 96 h incubation at 37° C., 5% CO2 25 μl ATP-glow mix was added. The plate was incubated for 30 min at 37° C. and luminescence was measured with the Envision.
pIC50 values were calculated as follows. Raw data generated by the instruments were normalized to % Controlmin values, which were calculated as: % Controlmin=100*(x−mLC)/(mHC−mLC),
where mLC and mHC are the means of the low control wells and high control wells on the plate, after manual exclusion of outliers. The relation between the % Controlmin values and concentration was fitted to a 4-parameter logistic curve using a non-linear least squares regression method to determine the pIC50 value. Outlying data points were excluded manually to get a correct fit. The pIC50 corresponds to −log 10(IC50), if the IC50 is expressed in molar units (http://www.ncbi.nlm.nih.gov/books/NBK91994). The IC50 parameter was always determined by non-linear regression, but one or more of the other parameters may have been held fixed on a relevant input value, such as 0 for the bottom values.
For dose response curves with FASN inhibitors in LNCaP_Vancouver or PC-3M-Luc_C6 cells the curves bottom out around 30 to 40% of the control value. A standard fit PL2, forcing the lower bound to this level was used.
Representative compounds of the present invention were tested according to the procedure as described in Biological Example 4a and 4b above, with results as listed in Table BIO-4, below.

[4] = test system: A2780 ovarian cells; test: A2780 Ovarian Cell Proliferation Assay in Lipid Reduced Medium, without Palmitate; format: cell-based; conditions: Homo sapiens
Outline: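 A2780 cells were seeded in 10% FCS medium and switched next day to 10% lipid-reduced serum without palmitate. Compounds at 0.01–30 μM were added with 0.2% DMSO, 0.2% fatty-acid-free BSA and 0.25% ethanol final. After 96 h, MTT absorbance at 544 nm was normalized to plate controls, and IC50/pIC50 came from a 4-parameter logistic fit.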

[5] = A2780, lipid reduced medium, 25 μM palmitate, 96 h, MTT, read-out: Proliferation A2780 with Palmitate pIC50 (converted)
[6] = A2780, lipid reduced medium, without palmitate, 96 h, MTT, read-out: Proliferation A2780 w/o Palmitate pIC50 (converted)

## CC(C)N(C)c1ccc(C(=O)N2CCC(c3ccc(-c4cnn(C)c4)cc3)CC2)cc1NC(=O)c1ccc(Cl)nc1 [Compound 274, 6-chloro-N-(2-(isopropyl(methyl)amino)-5-(4-(4-(1-methyl-1H-pyrazol-4-yl)phenyl)piperidine-1-carbonyl)phenyl)nicotinamide]
[1]; [5]
  IC50: > 10 µM
[2]
  IC50: ~2190 nM
[3]
  IC50: 0.776 µM
[4]; [6]
  IC50: ~0.302 µM

## CN(C)c1ccc(C(=O)N2CCC(c3ccc(-c4cnn(C)c4)cc3)CC2)cc1NC(=O)c1ccc(Cl)nc1 [Compound 275, 6-chloro-N-(2-(dimethylamino)-5-(4-(4-(1-methyl-1H-pyrazol-4-yl)phenyl)piperidine-1-carbonyl)phenyl)nicotinamide]
[1]; [5]
  IC50: > 10 µM
[2]
  IC50: 126 nM
[3]
  IC50: 0.12 µM
[4]; [6]
  IC50: 0.1 µM

## CC(C)Nc1ccc(C(=O)Nc2cc(C(=O)N3CCC(c4ccc(-c5cnn(C)c5)cc4)CC3)ccc2N(C)C(C)C)cn1 [Compound 276, N-(2-(isopropyl(methyl)amino)-5-(4-(4-(1-methyl-1H-pyrazol-4-yl)phenyl)piperidine-1-carbonyl)phenyl)-6-(isopropylamino)nicotinamide]
[1]; [5]
  IC50: > 10 µM
[2]
  IC50: 479 nM
[3]
  IC50: 0.49 µM
[4]; [6]
  IC50: ~0.257 µM

## COCCN(C)c1ccc(C(=O)N2CCC(c3ccc(-c4cnn(C)c4)cc3)CC2)cc1NC(=O)C1CC1 [Compound 278, N-(2-((2-methoxyethyl)(methyl)amino)-5-(4-(4-(1-methyl-1H-pyrazol-4-yl)phenyl)piperidine-1-carbonyl)phenyl)cyclopropanecarboxamide]
[1]; [5]
  IC50: > 10 µM
[2]
  IC50: 1100 nM
[3]
  IC50: 2.14 µM
[4]; [6]
  IC50: 1.78 µM

## CC(C)Nc1ccc(C(=O)Nc2cc(C(=O)N3CCC(c4ccc(-c5cnn(C)c5)cc4)CC3)ccc2N(C)C)cn1 [Compound 280, N-(2-(dimethylamino)-5-(4-(4-(1-methyl-1H-pyrazol-4-yl)phenyl)piperidine-1-carbonyl)phenyl)-6-(isopropylamino)nicotinamide]
[1]; [5]
  IC50: 6.17 µM
[2]
  IC50: 148 nM
[3]
  IC50: 0.0724 µM
[4]; [6]
  IC50: 0.0776 µM

## COCCN(C)c1ccc(C(=O)N2CCC(c3ccc(-c4cnn(C)c4)cc3)CC2)cc1NC(=O)c1ccc(NC(C)C)nc1 [Compound 281, 6-(isopropylamino)-N-(2((2-methoxyethyl)(methyl)amino)-5-(4-(4-(1-methyl-1H-pyrazol-4-yl)phenyl)piperidine-1-carbonyl)phenyl)nicotinamide]
[1]; [5]
  IC50: ~6.31 µM
[2]
  IC50: 933 nM
[3]
  IC50: ~0.776 µM
[4]; [6]
  IC50: 0.417 µM

## COCCNc1ccc(C(=O)N2CCC(c3ccc(-c4cnn(C)c4)cc3)CC2)cc1NC(=O)c1ccc(NC(C)C)nc1 [Compound 282, 6-(isopropylamino)-N-(2-((2-methoxyethyl)amino)-5-(4-(4-(1-methyl-1H-Pyrazol-4-yl)phenyl)piperidine-1-carbonyl)phenyl)nicotinamide]
[1]; [5]
  IC50: > 10 µM
[2]
  IC50: 457 nM
[3]
  IC50: 0.17 µM
[4]; [6]
  IC50: 0.209 µM

## CC(C)Nc1ccc(C(=O)Nc2cc(C(=O)N3CCC(c4ccc(-c5cnn(C)c5)cc4)CC3)ccc2NC2CC2)cn1 [Compound 283, N-(2-(cyclopropylamino)-5-(4-(4-(1-methyl-1H-pyrazol-4-yl)phenyl)piperidine-1-carbonyl)phenyl)-6-(isopropylamino)nicotinamide]
[1]; [5]
  IC50: > 10 µM
[2]
  IC50: 631 nM
[3]
  IC50: 0.245 µM
[4]; [6]
  IC50: 0.363 µM

## CC(C)Nc1ccc(C(=O)Nc2cc(C(=O)N3CCC(c4ccc(-c5cnn(C)c5)cc4)CC3)ccc2NC(C)C)cn1 [Compound 284, 6-(isopropylamino)-N-(2-(isopropylamino)-5-(4-(4-(1-methyl-1H-pyrazol-4-yl)phenyl)piperidine-1-carbonyl)phenyl)nicotinamide]
[1]; [5]
  IC50: > 10 µM
[2]
  IC50: 407 nM
[3]
  IC50: 0.195 µM
[4]; [6]
  IC50: ~0.316 µM

## CC(C)Nc1ccc(C(=O)Nc2cc(C(=O)N3CCC(c4ccc(-c5cnn(C)c5)cc4)CC3)ccc2N)cn1 [Compound 285, N-(2-amino-5-(4-(4-(1-methyl-1H-pyrazol-4-yl)phenyl)piperidine-1-carbonyl)phenyl)-6-(isopropylamino)nicotinamide]
[1]; [5]
  IC50: 3.39 µM
[2]
  IC50: 214 nM
[3]
  IC50: 0.126 µM
[4]; [6]
  IC50: 0.0589 µM

## COCCNc1ccc(C(=O)N2CCC(c3ccc(-c4cnn(C)c4)cc3)CC2)cc1NC(=O)C1CC1 [Compound 286, N-(2-((2-methoxyethyl)amino)-5-(4-(4-(1-methyl-1H-pyrazol-4-yl)phenyl)piperidine-1-carbonyl)phenyl)cyclopropanecarboxamide]
[1]; [5]
  IC50: > 10 µM
[2]
  IC50: 851 nM
[3]
  IC50: 1.82 µM
[4]; [6]
  IC50: 0.427 µM

## CC(C)Nc1ccc(C(=O)Nc2cc(C(=O)N3CCC(c4ccc(-c5cnn(C)c5)cc4)CC3)ccc2N(C)C2CC2)cn1 [Compound 287, N-(2-(cyclopropyl(methyl)amino)-5-(4-(4-(1-methyl-1H-pyrazol-4-yl)phenyl)piperidine-1-carbonyl)phenyl)-6-(isopropylamino)nicotinamide]
[1]; [5]
  IC50: > 10 µM
[2]
  IC50: 204 nM
[3]
  IC50: 0.186 µM
[4]; [6]
  IC50: 0.676 µM

## CN(c1ccc(C(=O)N2CCC(c3ccc(-c4cnn(C)c4)cc3)CC2)cc1NC(=O)C1CC1)C1CC1 [Compound 288, N-(2-(cyclopropyl(methyl)amino)-5-(4-(4-(1-methyl-1H-pyrazol-4-yl)phenyl)piperidine-1-carbonyl)phenyl)cyclopropanecarboxamide]
[1]; [5]
  IC50: > 10 µM
[2]
  IC50: 2510 nM
[3]
  IC50: 3.09 µM
[4]; [6]
  IC50: 5.13 µM

## Cc1ccc(C(=O)N2CCC(c3ccc(-c4cnn(C)c4)cc3)CC2)cc1NC(=O)c1ccc(NC(C)C)nc1 [Compound #32, 6-(isopropylamino)-N-(2-methyl-5-(4-(4-(1-methyl-1H-pyrazol-4-yl)phenyl)piperidine-1-carbonyl)phenyl)nicotinamide]
[1]; A2780, 96 h, read-out: Proliferation A2780 with Palmitate pIC50 (μM) (converted)
  IC50: 7.24 µM
[2]
  IC50: 37.2 nM
[3]
  IC50: 0.01 µM
[4]; A2780, 96 h, read-out: Proliferation A2780 w/o Palmitate pIC50 (μM) (converted)
  IC50: 0.0135 µM

## Cc1ccc(C(=O)N2CC(c3ccc(-c4cnn(C)c4)cc3)C2)cc1NC(=O)c1ccc(N2CCOCC2)nc1 [Compound #66, N-(2-methyl-5-(3-(4-(1-methyl-1H-pyrazol-4-yl)phenyl)azetidine-1-carbonyl)phenyl)-6-morpholinonicotinamide]
[1]; [5]
  IC50: > 15.1 µM
[2]
  IC50: 31.6 nM
[3]
  IC50: ~0.00813 µM
[4]; [6]
  IC50: ~0.0229 µM

## Cc1ccc(C(=O)N2CC(c3ccc(-c4cnn(C)c4)cc3)C2)cc1NC(=O)c1ccc(N(C)C(C)C)nc1 [Compound #78, 6-(isopropyl(methyl)amino)-N-(2-methyl-5-(3-(4-(1-methyl-1H-pyrazol-4-yl)phenyl)azetidine-1-carbonyl)phenyl)nicotinamide]
[1]; [5]
  IC50: ~15.1 µM
[2]
  IC50: 25.1 nM
[3]
  IC50: ~0.00871 µM
[4]; [6]
  IC50: ~0.0295 µM

## CNc1ccc(C(=O)N2CCC(c3ccc(-c4cnn(C)c4)cc3)CC2)cc1NC(=O)c1ccc(NC(C)C)nc1 [Compound #279, 6-(isopropylamino)-N-(5-(4-(4-(1-methyl-1H-pyrazol-4-yl)phenyl)piperidine-1-carbonyl)-2-(methylamino)phenyl)nicotinamide]
[1]; [5]
  IC50: ~10 µM
[2]
  IC50: 93.3 nM
[3]
  IC50: 0.0355 µM
[4]; [6]
  IC50: 0.0417 µM
